Counter-ions that a name gives are not always drawn. Like-named read-outs stand apart in the source and are kept apart here.
How the values were obtained:
[1] = cited from earlier work
[2] = gastrointestinal tract simulation system, fasted state, Sporanox solution with or without water; format: in vitro ADME
Protocol: FIGS. 5A-7B are a series of graphs showing the results of an experiment, simulating fasted state conditions, in which tests are performed in an experimental setup as shown in FIG. 1. […] At the start of the first experimental run, 20 mL of Sporanox® solution (corresponding to a dose of 200 mg itraconazole) was added to the stomach (without water) (Vdose 1=20 mL) whereas at the start of the second run, 20 mL of Sporanox solution was added together with 240 mL of water to the first compartment (with water) (Vdose 2=260 mL). […] Itraconazole concentrations were determined through UHPLC chromatography coupled to UV detection. All experiments were performed in biological triplicate.

[3] = cited from earlier work; remark: listed apart in the source

SMILES	AUC of solute concentration in the duodenum (fed state with carbohydrate solution compared to fasted state)	AUC of solute concentration in the duodenum (fed state with elevated stomach pH)	decrease in indinavir bioavailability ([1]; high carbohydrate meal compared to fasted) [%]	decrease in indinavir bioavailability ([1]; high fat meal compared to fasted) [%]	decrease in indinavir bioavailability ([1]; high protein meal compared to fasted) [%]	area under the curve of the permeated compound ([2]; with versus without water, outer vessel (sink))	behaviour of itraconazole in the duodenum ([2]; without water, duodenum pH 6.5)	aqueous solubility [3]
CC(C)(C)NC(=O)[C@@H]1CN(Cc2cccnc2)CCN1C[C@@H](O)C[C@@H](Cc1ccccc1)C(=O)N[C@H]1c2ccccc2C[C@H]1O [indinavir sulfate]	increased	decreased substantially	45	34	68	–	–	–
CCC(C)n1ncn(-c2ccc(N3CCN(c4ccc(OCC5COC(Cn6cncn6)(c6ccc(Cl)cc6Cl)O5)cc4)CC3)cc2)c1=O (centres unmarked) [Itraconazole, itraconazole]	–	–	–	–	–	absence of a substantial difference	precipitation of a fraction of the administered dose	very low aqueous solubility
